Measured values: patent US10568892B2, “Cycloartane tetracyclic triterpenoid compound, preparation method therefor and use thereof” (Hefei Cosource Pharmaceuticals Inc., priority 2016, dated 2020)
Marks after values point to notes of the source that are not given here.

Legend:
guinea pig heart = experiment: Atrial fibrillation induced by high- and low-potassium Langendorff perfusion of the guinea pig heart; conditions: 1 μM; within 60 min of low-potassium perfusion
Source text: Method: a total of 24 guinea pigs were divided into 4 groups according to body weight, and were sacrificed. The heart was quickly taken out, and the blood was squeezed in the ice bath perfusion solution. The heart was quickly transferred in the Langendorff perfusion system, and the perfusion at a constant rate was started by turning on the oxygen-saturated perfusate. One end of the electrode was placed at the cardiac apex, and one end was placed at the right atrium (the position of the atrial appendage). The electrocardiogram was recorded on the computer.
After the heart was stabilized, 10 min after the perfusion of high-K perfusate, blank vehicle, 0.1 μM, 1 μM, and 10 μM of Compound 369, 1 μM Amiodarone and Cyclovirobuxine D were simultaneously administrated and the high K perfusion was continued for 20 min, respectively. Then, the high K perfusion was removed to administrate the low-K perfusate, and the electrocardiogram was obtained at the same time to record whether there was atrial fibrillation within 60 min of low-potassium perfusion.

SD rats [1] = experiment: Rat myocardial ischemia model with coronary artery ligation and reperfusion (arrhythmia incidence); assay type: in vivo; conditions: injection (sublingually) 5 min before ischemia
Source text: Method: SD rats were anesthetized with pentobarbital, and a cervical midline incision was made to separate and cut off the trachea such that it was connected to a respirator. The skin was cut along the midline of the left clavicle of the rat, and the chest was opened between the left third and fourth ribs to gently squeeze out the heart. The pericardium was opened, the needle was inserted at the left edge of the pulmonary artery cone and 2 mm at the lower edge of the left atrial appendage. The 6-0 non-invasive suture was threaded through the superficial myocardium, with the left anterior descending coronary artery (LAD) located thereon. After stabilization for 5 min, a double-layer plastic cannula was put on, and the cable tie was tighten to complete the myocardial ischemia induced by left coronary artery occlusion. The criterion for myocardial ischemia is the occurrence of myocardial infarction (St-segment ran up or T-wave was shown as high sharp wave) in the electrocardiogram and the presence of local cyanosis in the heart. After 5 min of myocardial ischemia, the inner cannula was withdrawn, that is, the wire knot was released for reperfusion, and the electrocardiogram of reperfusion in the rat was recorded.
The administration was performed at 5 min before the ischemia by coronary artery ligation, and the administration mode was injection administration (sublingually).

SD rats [2] = experiment: Single-dose toxicity (MTD) in SD rats; assay type: in vivo; conditions: SD rat; single intravenous injection
Source text: (§1) The results of the experimental study on the toxicity of Compound 369 administrated through a single intravenous or intragastrical administration in SD rats and KM mice are shown in Table 9.

KM mice = experiment: Single-dose toxicity (MTD) in KM mice; assay type: in vivo; conditions: KM mouse; single intragastrical administration
Source text: as §1

[3] = Pharmacokinetics in SD rats; assay type: in vivo, rat; conditions: SD rats, 2 mg/kg
Description: Method: twelve SD male rats were divided into four groups: 2 mg/kg of Compound 369 or cyclovirobuxine D was single dose through the intravenous injection or intragastrical administration, respectively. In the intravenous and intragastrical groups, blood samples (about 0.3 Ml) were collected from the posterior orbital venous plexus pro-dose and 0.25 h, 0.5 h, 1 h, 2 h, 4 h, 6 h, 8 h, and 12 h post-dose. The concentrations of Compound 369 and cyclovirobuxine D in plasma samples were determined by LC-MS/MS, and the pharmacokinetic parameters were calculated by DAS.3.0 software.

[4] = Pharmacokinetics in Beagle canines; assay type: in vivo; conditions: Beagle canines; 2 mg/kg; intragastrical administration
Description: Method: Six healthy male Beagle canines were selected and divided into two groups. 2 mg/kg of Compound 369 or cyclovirobuxine D was administrated intragastrically, respectively. Blood samples (about 2 mL) were collected from the limb venous of canines 0 h before administration as well as 0.25 h, 0.5 h, 1 h, 2 h, 4 h, 6 h, 8 h, and 12 h after administration. The concentrations of Compound 369 and cyclovirobuxine D in plasma samples were determined by LC-MS/MS, and the pharmacokinetic parameters were calculated by DAS.3.0 software.

[5] = tested on: ventricular myocytes of guinea pig; conditions: literature, cited from earlier work
[6] = tested on: ventricular papillary muscle cell of guinea pig; experiment: Action potential of the ventricular papillary muscle cell of guinea pig (electrophysiological recording); assay type: cell-based
Description: Method: One guinea pig was taken to violently hit the back of the brain such that it fainted. The common carotid artery was cut off for bleeding to kill the guinea pig. The chest was incised to expose the heart, and the ventricle was cut open along the interventricular septum to expose the lumen of the left ventricle. The papillary muscles were quickly taken out and placed in a Kreb's solution saturated with O2 (mixed gas of 95% O2 and 5% CO2) at 0° C. After the microscopic dressing, the papillary muscle specimen was fixed with a stainless steel needle on the silicone rubber at the bottom of the perfusion bath, and perfused with the oxygen-saturated Kreb's solution. The relevant parameters for perfusion: the temperature was 37±0.5° C., and the flow rate was 4 mL/min.
Cellular action potentials were recorded using a conventional electrophysiological method. The glass electrode filled with 3M KCl saturated solution and having a tip resistance of 15-30 MΩ was fixed on the microelectrode manipulator MP-2. The glass electrode was gently inserted into the superficial layer of the prepared papillary muscle specimen using a microelectrode pusher. The electrode was adjusted to provide the predetermined bioelectrical stimulation with the triple-channel SEN-7203 electronic stimulator and SS-202 J isolator. The bioelectrical signal was amplified by the MEZ-8301 amplifier and then input to the computerized electrophysiological recording and analysis system Powerlab 4/25. Subsequently, the relevant parameters of the action potential for the ventricular papillary muscle were analyzed through the analysis system. The relevant parameters for electrical stimulation: 30 ms latency, 7 ms wavewidth, 1 Hz frequency, 52.1 my stimulation intensity.
In the compound screening test stage, after the ventricular papillary muscle specimen of the guinea pig was fixed, it was first perfused with a normal Kreb's solution for about 85 minutes for stabilization, and the relevant parameters of the cellular action potential before administration were recorded at about 80 min after the start of perfusion. The three-limb tube was used to convert the perfusates containing the title compounds. The title compounds were continuously perfused for about 25 min successively with low (0.0005 μM), medium (0.005 μM), and high (0.05 μM) concentrations, respectively. At about 20 min after the start of drug perfusions at different concentrations, the relevant parameters of the action potentials for the ventricular papillary muscle of guinea pig were observed and recorded, respectively. The normal Kreb's solution was used to perfuse and elute for about 25 min during the intervals between drug perfusions at different concentrations.
The experiment was divided into the following five groups with 6 animals in each group: a vehicle control group, a 369 low dose (0.0005 μM) group, a 369 medium dose (0.005 μM) group, a 369 high dose (0.05 μM) group, and an amiodarone (10 μM) positive control group. After the ventricular papillary muscle specimen of the guinea pig was fixed, it was first perfused with a normal Kreb's solution for about 85 minutes for stabilization, and the relevant parameters of the cellular action potential before administration were recorded at about 80 min after the start of perfusion. According to groups, the three-limb tube was configured to convert the perfusates containing the vehicle, positive control, or Compound 369 at the corresponding concentrations to continuously perfuse for about 25 min. At about 20 min after the start of the perfusions, the relevant parameters of the action potentials for the ventricular papillary muscle of guinea pig were observed and recorded.

[7] = n = 6, x ± SD, 10 μM group, baseline

CN[C@@H](C)[C@H]1[C@H](O)C[C@@]2(C)[C@@H]3CC[C@H]4C(C)(C)[C@@H](NC)CC[C@@]45C[C@@]35CC[C@]12C [Cyclovirobuxine D, reference compound]
Incidence (%) of atrial fibrillation (guinea pig heart): 83% | Number of animals developing atrial fibrillation (guinea pig heart): 5 | Death (%) (SD rats [1]; 1 mg/kg): 50% | Death n (SD rats [1]; 1 mg/kg): 3 | Ventricular fibrillation (%) (SD rats [1]; 1 mg/kg): 83% | Ventricular fibrillation n (SD rats [1]; 1 mg/kg): 5 | Ventricular premature beat (%) (SD rats [1]; 1 mg/kg): 100% | Ventricular premature beat n (SD rats [1]; 1 mg/kg): 6 | Ventricular tachycardia (%) (SD rats [1]; 1 mg/kg): 100% | Ventricular tachycardia n (SD rats [1]; 1 mg/kg): 6 | Maximum tolerance dose (MTD) (SD rats [2]): 5 mg/kg | Maximum tolerance dose (MTD) (KM mice): 400 mg/kg | AUCt ([3]; intragastrical administration): 110.6 ng·h/mL | Cmax ([3]; intragastrical administration): 16.30 ng/mL | F ([3]; intragastrical administration): 36% | T1/2 ([3]; intragastrical administration): 18.85 h | Tmax ([3]; intragastrical administration): 2.75 h | AUCt ([3]; intravenous injection): 310.0 ng·h/mL | Cmax ([3]; intravenous injection): 146.2 ng/mL | T1/2 ([3]; intravenous injection): 8.54 h | Tmax ([3]; intravenous injection): 0.25 h | AUCt [4]: 274.3 ng·h/mL | Cmax [4]: 19.09 ng/mL | T1/2 [4]: 15.90 h | Tmax [4]: 3.55 h | Effect on APD of the action potential (in words) ([5]; 0.024 μM): can prolong the APD | Spontaneous activity frequency of cardiomyocytes (in words) ([5]; 0.012-0.036 μM): slow down or even disappear

CCCCc1oc2ccccc2c1C(=O)c1cc(I)c(OCCN(CC)CC)c(I)c1 [Amiodarone, reference compound]
percent change in action potential duration at 10 µM ([6]; Cavia porcellus, 20 min, n = 6, x ± SD, 10 μM, read-out: APD, Change rate (%)): 56.8% | APD50, Change rate (%) ([6]; n = 6, x ± SD, 10 μM): 93.34% ± 53.59%^b | APD50, Post-administration ([6]; n = 6, x ± SD, 10 μM): 0.0590 ± 0.0269^a | APD90, Change rate (%) ([6]; n = 6, x ± SD, 10 μM): 68.91% ± 33.59%^b | APD90, Post-administration ([6]; n = 6, x ± SD, 10 μM): 0.0862 ± 0.0275^a | APD, Post-administration ([6]; n = 6, x ± SD, 10 μM): 0.1028 ± 0.0258^a | APD50, Pre-administration [6, 7]: 0.0313 ± 0.0131 | APD90, Pre-administration [6, 7]: 0.0524 ± 0.0175 | Incidence (%) of atrial fibrillation (guinea pig heart): 17% | Number of animals developing atrial fibrillation (guinea pig heart): 1 | Death (%) (SD rats [1]; 3 mg/kg): 13% | Death n (SD rats [1]; 3 mg/kg): 1 | Ventricular fibrillation (%) (SD rats [1]; 3 mg/kg): 38% | Ventricular fibrillation n (SD rats [1]; 3 mg/kg): 3 | Ventricular premature beat (%) (SD rats [1]; 3 mg/kg): 100% | Ventricular premature beat n (SD rats [1]; 3 mg/kg): 8 | Ventricular tachycardia (%) (SD rats [1]; 3 mg/kg): 87% | Ventricular tachycardia n (SD rats [1]; 3 mg/kg): 7

CN[C@H]1CC[C@]23C[C@]24CC[C@]2(C)C(C(C)=O)=C(C)C[C@@]2(C)[C@@H]4CC[C@H]3C1(C)C [Compound 383a, (3β,5α)-4,4,14,16-tetramethyl-3-(methylamino)-9,19-cyclopregnan-16-en-20-one]
percent change in action potential duration at 0.0005 µM ([6]; Cavia porcellus, 20 min, screening stage, 0.0005 μM, read-out: APD, Change rate (%)): 4.02% | percent change in action potential duration at 0.005 µM ([6]; Cavia porcellus, 20 min, screening stage, 0.005 μM, read-out: APD, Change rate (%)): 33% | percent change in action potential duration at 0.05 µM ([6]; Cavia porcellus, 20 min, screening stage, 0.05 μM, read-out: APD, Change rate (%)): 30% | Effect on the APD value of the action potential of the papillary muscle (in words) ([6]; screening stage, Table 3 summary): a certain degree of prolonged effects | APD, Post-administration ([6]; screening stage, 0.0005 μM, about 20 min perfusion): 0.0751 | APD, Post-administration ([6]; screening stage, 0.005 μM, about 20 min perfusion): 0.0943 | APD, Post-administration ([6]; screening stage, 0.05 μM, about 20 min perfusion): 0.0948
